Measured values as given in PMC8536830 (Current Biology, 2021).

What was measured:
LGC-50:MOD-1(327-458) = target: T1, LGC-50:MOD-1(327-458) (Caenorhabditis elegans, UniProt P41849); assay: Two-electrode voltage clamp, 5-HT evoked dose response, LGC-50 chimera with MOD-1 M3/4 loop; type: cell-based, C. elegans; settings: Xenopus oocytes, TEVC; LGC-50 with M3/4 loop of MOD-1
T1 construct: Plasmid: KSM: lgc-50:mod-1(327-458) (cDNA); MOD-1 residues 327-458 (M3/4 loop); expressed in transfected cells; host or cells: Xenopus laevis oocytes injected with cRNA (plasmid pIH125)
T1 sequence (P41849 with tags, fused parts or gaps): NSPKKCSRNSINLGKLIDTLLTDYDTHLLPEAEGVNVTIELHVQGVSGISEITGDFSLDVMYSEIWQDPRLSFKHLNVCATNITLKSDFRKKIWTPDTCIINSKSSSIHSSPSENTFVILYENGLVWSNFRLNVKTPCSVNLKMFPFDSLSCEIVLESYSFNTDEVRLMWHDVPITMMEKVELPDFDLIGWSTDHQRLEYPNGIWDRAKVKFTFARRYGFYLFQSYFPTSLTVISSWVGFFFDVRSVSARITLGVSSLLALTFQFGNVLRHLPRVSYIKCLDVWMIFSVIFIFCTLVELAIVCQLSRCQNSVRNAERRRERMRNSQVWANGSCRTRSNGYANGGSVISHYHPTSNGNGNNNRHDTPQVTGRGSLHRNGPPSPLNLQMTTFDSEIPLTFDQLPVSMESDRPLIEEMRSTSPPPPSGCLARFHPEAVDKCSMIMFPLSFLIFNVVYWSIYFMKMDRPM
Protocol: To investigate, we exchanged the intracellular M3/4 loop of LGC-50 with the equivalent region of MOD-1 (LGC-50:MOD-1 327–458) and expressed the chimera in oocytes. […] The EC50 of the chimeric channels matched that of the recipient channel (Figures 5C and 5D).
(§1) Defolliculated Xenopus laevis oocytes were obtained from EcoCyte Bioscience (Dortmund, Germany) and maintained in ND96 (in mM: 96 NaCl, 1 MgCl2, 5 HEPES, 1.8 CaCl2, 2 KCl) solution at 16°C for 3-5 days.
5'-capped cRNA was synthesized in vitro using the T3 mMessage mMachine transcription kit according to manufacturer’s protocol (Thermo Fischer Scientific, CA, USA). […]
(§2) Two-electrode voltage clamp recordings were carried out using the Robocyte2 recording system or a manual TEVC set up, using an OC-725D amplifier (Multi Channel Systems, Reutlingen, Germany) and paired with a custom-made recording chamber and agar bridges from reference and bath electrodes. […] Data was recorded using WinWCP or RoboCyte2 control software, manual data was filtered at 10 Hz.
(§3) Dose response curves were calculated from the peak current during a 10 s agonist stimulation in ND96 solution, with a 60 s ND96 wash in between doses. […] Normalized dose response data was fitted to a nonlinear curve using a four parameters variable slope and the EC50 and Hill slope was calculated. […] Kinetic measurements were calculated from a 60 s agonist perfusion. […]

LGC-50 Δ363-397 = target: T2, LGC-50 Δ363-397 (Caenorhabditis elegans, UniProt P41849, DEL363-397); assay: Two-electrode voltage clamp, 5-HT evoked dose response, LGC-50 deletion mutant Δ363-397; type: cell-based, C. elegans
T2 construct: Plasmid: KSM: lgc-50 (cDNA, Δ363 - 397); expressed in transfected cells; host or cells: Xenopus laevis oocytes injected with cRNA (plasmid pJML138)
T2 sequence (P41849 other isoform, or with tags, fused parts or gaps DEL363-397): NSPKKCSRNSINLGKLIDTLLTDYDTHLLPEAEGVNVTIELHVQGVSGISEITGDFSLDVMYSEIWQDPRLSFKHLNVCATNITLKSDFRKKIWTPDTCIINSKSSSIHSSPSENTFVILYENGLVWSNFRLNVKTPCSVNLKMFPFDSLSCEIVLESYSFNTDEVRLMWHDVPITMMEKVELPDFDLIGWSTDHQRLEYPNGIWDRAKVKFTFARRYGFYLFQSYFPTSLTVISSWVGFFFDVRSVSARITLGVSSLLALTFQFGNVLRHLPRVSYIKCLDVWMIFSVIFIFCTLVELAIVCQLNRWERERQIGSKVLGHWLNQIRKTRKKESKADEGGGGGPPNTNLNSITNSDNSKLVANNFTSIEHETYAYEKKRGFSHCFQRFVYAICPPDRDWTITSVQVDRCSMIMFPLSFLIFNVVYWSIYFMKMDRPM
Protocol: To identify such domains, we tested the effects of deletion mutations in the LGC-50 M3/4 loop (Figure 5A).
as §1
5'-capped cRNA was synthesized in vitro using the T3 mMessage mMachine transcription kit according to manufacturer’s protocol (Thermo Fischer Scientific, CA, USA). RNA was then purified using the GeneJET RNA purification kit (Thermo Fischer Scientific, CA, USA) prior to cRNA injection. […]
as §2, §3

`NCCc1c[nH]c2ccc(O)cc12` [5-HT, serotonin] showed an EC50 (LGC-50:MOD-1(327-458)) of 0.85 µM and an EC50 (LGC-50 Δ363-397) of 0.93 µM.
